Source: the NIST ThermoML archive (doi:10.1016/j.tca.2015.02.004)
Where “and” joins values, the source holds several entries; their conditions need not be identical. Equal values may be shown once.

How the values were obtained:
[1] = Boiling temperature at pressure P; conditions: Liquid, Distillation
[2] = Liquid, Diaphragm manometer

C[Si](C)(C)NCc1ccccc1 [(benzylamino)trimethylsilane]
Conditions | Boiling temperature at pressure P [°C]
[1], 2 kPa | 98.00

C[Si](C)(C)c1ccccc1 [trimethylphenylsilane]
Conditions | Boiling temperature at pressure P [°C] | vapor or sublimation pressure [kPa]
[1], 1.866 kPa | 56.00 | –
[2], 296.7 K | – | 0.33
[2], 297.7 K | – | 0.29
[2], 298.8 K | – | 0.31
[2], 322.2 K | – | 1.14
[2], 322.7 K | – | 1.28
[2], 333.2 K | – | 2.02
[2], 343.7 K | – | 3.24
[2], 352.2 K | – | 4.73
[2], 352.8 K | – | 4.91
[2], 371.9 K | – | 10.63
[2], 372.2 K | – | 11.04
[2], 373.2 K | – | 10.82
[2], 382.9 K | – | 15.75
[2], 391 K | – | 21.76
[2], 392.1 K | – | 21.75
[2], 392.4 K | – | 22.02
[2], 401.1 K | – | 29.35

C[Si](C)(C)N(c1ccccc1)[Si](C)(C)C [N,N-bis(trimethylsilyl)aniline]
Conditions | Boiling temperature at pressure P [°C] | vapor or sublimation pressure
[1], 0.267 kPa | 60.00 | –
[2], 321.8 K | – | 0.15 kPa
[2], 322.1 K | – | 0.2 kPa
[2], 330.7 K | – | 0.29 kPa
[2], 331.2 K | – | 0.24 kPa
[2], 331.4 K | – | 0.26 kPa
[2], 341.9 K | – | 0.36 kPa
[2], 351.2 K | – | 0.59 kPa and 0.61 kPa
[2], 351.4 K | – | 0.59 kPa
[2], 361.1 K | – | 0.96 kPa
[2], 361.2 K | – | 1 kPa
[2], 371.2 K | – | 1.56 kPa
[2], 380.7 K | – | 2.34 kPa
[2], 381.2 K | – | 2.32 kPa
[2], 390.9 K | – | 3.54 kPa
[2], 400.5 K | – | 5.22 kPa
[2], 400.7 K | – | 5.19 kPa
[2], 400.9 K | – | 5.65 kPa
[2], 410.7 K | – | 7.51 kPa
[2], 411 K | – | 7.35 kPa
[2], 421.4 K | – | 10.96 kPa
[2], 421.5 K | – | 10.91 kPa
[2], 421.9 K | – | 10.9 kPa
[2], 431.7 K | – | 15.13 kPa
[2], 441.2 K | – | 20.51 kPa
[2], 441.6 K | – | 20.37 kPa
[2], 451.2 K | – | 27.3 kPa

C[Si](C)(C)Nc1ccccc1 [trimethyl(phenylamino)silane]
Conditions | Boiling temperature at pressure P [°C] | vapor or sublimation pressure [kPa]
[1], 0.4 kPa | 56.00 | –
[2], 311.6 K | – | 0.2
[2], 312.8 K | – | 0.24
[2], 332.5 K | – | 0.65
[2], 350.9 K | – | 1.64
[2], 371.8 K | – | 3.76
[2], 372.1 K | – | 3.79
[2], 390 K | – | 7.38
[2], 391.4 K | – | 7.86
[2], 391.6 K | – | 7.85
[2], 410.6 K | – | 14.88
[2], 411.6 K | – | 15.98
[2], 421.7 K | – | 21.19
[2], 422.7 K | – | 22.43
[2], 431.8 K | – | 28.53
[2], 432.7 K | – | 30.61
[2], 446.1 K | – | 43.07
[2], 452.1 K | – | 52.87
[2], 455.2 K | – | 55.6

C[Si](C)(C)N[Si](C)(C)C [1,1,1,3,3,3-hexamethyldisilazane]
[2]
Conditions | vapor or sublimation pressure [kPa]
290.8 K | 1.51
290.9 K | 1.54
292 K | 1.68
293.5 K | 1.73
301.1 K | 2.71
301.5 K | 2.68
311.4 K | 4.25
312.4 K | 4.36
320.2 K | 5.93
321.2 K | 6.6
329.7 K | 9.72
330.9 K | 10.21
331.8 K | 10.3
340.1 K | 14.79
341.1 K | 15.35
349.8 K | 20.68
352.7 K | 23.41
360.3 K | 30.3
360.5 K | 31.34
370 K | 42.85
371.8 K | 45.32
382.2 K | 59.76
